Legend:
Homo sapiens [1] = species: Homo sapiens; assay: (§1) Selectivity index, ratio of inhibition of full length human MKK7 (M1 to R419 residues) expressed in mammalian expression system assessed as residual percent of control binding at 100 nM relative to control to inhibition of partial length human MKK4 (S84 to D399 residues) expressed in mammalian expression system assessed as residual percent of control binding at 100 nM relative to control
Homo sapiens [2] = species: Homo sapiens; assay: as §1, with “JNK1” for “MKK7”, “Q384” for “R419”
Homo sapiens [3] = species: Homo sapiens; assay: Selectivity index, ratio of inhibition of B-raf (unknown origin) to inhibition of partial length human MKK4 (S84 to D399 residues) expressed in mammalian expression system assessed as residual percent of control binding at 100 nM relative to control

| Structure (SMILES) | Selectivity ratio (Homo sapiens [1]) | Selectivity ratio (Homo sapiens [2]) | Selectivity ratio (Homo sapiens [3]) |
| --- | --- | --- | --- |
| CCCS(=O)(=O)Nc1ccc(F)c(C(=O)c2ccc3[nH]c4ncc(-c5ccncc5)cc4c3c2)c1F | > 30 | > 30 | > 30 |
| CCCS(=O)(=O)Nc1ccc(F)c(C(=O)c2ccc3[nH]c4ncc(Cl)cc4c3c2)c1F | > 30 | > 30 | > 30 |
| CS(=O)(=O)Nc1c(F)ccc(C(=O)c2ccc3[nH]c4ncc(Cl)cc4c3c2)c1F | > 30 | > 30 | > 30 |
| CCCS(=O)(=O)Nc1ccc(F)c(C(=O)c2ccc3[nH]c4ncc(-c5ccc(C(=O)O)cc5)cc4c3c2)c1F | > 30 | > 30 | > 30 |
| CCCS(=O)(=O)Nc1ccc(F)c(C(=O)c2ccc3[nH]c4ncc(-c5ccc(N)nc5)cc4c3c2)c1F | > 30 | > 30 | > 30 |
| CCCS(=O)(=O)Nc1ccc(F)c(C(=O)c2ccc3[nH]c4ncc(-c5ccc(OCC(O)CO)cc5)cc4c3c2)c1F (configuration not stated) | > 30 | > 30 | > 30 |
| CCCS(=O)(=O)Nc1cccc(C(=O)c2ccc3[nH]c4ncc(Cl)cc4c3c2)c1F | > 30 | > 30 | > 30 |

The remaining lines, values ahead:

| Selectivity ratio (Homo sapiens [1]) | Selectivity ratio (Homo sapiens [2]) | Selectivity ratio (Homo sapiens [3]) | Structure (SMILES) |
| --- | --- | --- | --- |
| > 30 | > 30 | > 30 | CCCS(=O)(=O)Nc1ccc(F)c(C(=O)c2ccc3[nH]c4ncc(-c5ccc(S(=O)(=O)NCC(O)CO)nc5)cc4c3c2)c1F (configuration not stated) |
| > 30 | > 30 | > 30 | CCCS(=O)(=O)Nc1ccc(F)c(C(=O)c2ccc3[nH]c4ncc(-c5ccc(C(N)=O)cc5)cc4c3c2)c1F |
| > 30 | > 30 | > 30 | CS(=O)(=O)Nc1ccc(F)c(C(=O)c2ccc3[nH]c4ncc(-c5ccc(S(N)(=O)=O)cc5)cc4c3c2)c1F |
| > 30 | > 30 | > 30 | CCS(=O)(=O)Nc1ccc(F)c(C(=O)c2ccc3[nH]c4ncc(-c5ccc(S(N)(=O)=O)cc5)cc4c3c2)c1F |
| > 30 | > 30 | > 30 | CCCS(=O)(=O)Nc1ccc(F)c(C(=O)c2ccc3[nH]c4ncc(-c5ccc(C(=O)NCC(O)CO)nc5)cc4c3c2)c1F (configuration not stated) |
| > 30 | > 30 | > 30 | CCCS(=O)(=O)Nc1ccc(F)c(C(=O)c2ccc3[nH]c4ncc(-c5ccc(-c6nnn[nH]6)cc5)cc4c3c2)c1F |
| > 30 | > 30 | > 30 | CCCS(=O)(=O)Nc1ccc(F)c(C(=O)c2ccc3[nH]c4ncc(-c5ccc(S(N)(=O)=O)cc5)cc4c3c2)c1F |

From ChEMBL document CHEMBL4742403, “Tricyclic protein kinase inhibitors for promoting liver regeneration or reducing or preventing hepatocyte death” (2019)
